In general, IC50 refers to the concentration at which inhibition is half-maximal.

For one test, the system named is KM12 cells. Nature of the test: Cell viability assay (CellTiter-Glo) in KM12 cells. The conditions noted are these: Homo sapiens, 72 h; Table 2; KM12 cell viability, CellTiter-Glo, 3 days; read-out: IC50. It counts as cell-based. (In general: ATP-based viability assays read luminescence as a measure of living cells.)
`O=C1CCC(N2C(=O)c3cccc(NCC(=O)N4CCN(c5ccc(C(=O)Nc6n[nH]c7ccc(Cc8cc(F)cc(F)c8)cc67)c(NC6CCOCC6)c5)CC4)c3C2=O)C(=O)N1` (stereo not shown) [CPD-055, N-(5-(3,5-difluorobenzyl)-1H-indazol-3-yl)-4-(4-((2-(2,6-dioxopiperidin-3-yl)-1,3-dioxoisoindolin-4-yl)glycyl)piperazin-1-yl)-2-((tetrahydro-2H-pyran-4-yl)amino)benzamide]: the IC50 stood at 13 nM.
On the same count and under the same terms, the figure for `Cc1ncsc1-c1ccc(CNC(=O)[C@@H]2C[C@@H](O)CN2C(=O)[C@@H](NC(=O)CCCCC(=O)N2CCN(c3cccc(-c4cnc5ccc(N6CCC[C@@H]6c6cccc(F)c6)nn45)n3)CC2)C(C)(C)C)cc1` [CPD-001, (2S,4R)-1-((S)-2-(6-(4-(6-(6-((R)-2-(3-Fluorophenyl)pyrrolidin-1-yl)imidazo[1,2-b]pyridazin-3-yl)pyridin-2-yl)piperazin-1-yl)-6-oxohexanamido)-3,3-dimethylbutanoyl)-4-hydroxy-N-(4-(4-methylthiazol-5-yl)benzyl)pyrrolidine-2-carboxamide] is over 1000 nM; for `Cc1ncsc1-c1ccc(CNC(=O)[C@@H]2C[C@@H](O)CN2C(=O)[C@@H](NC(=O)COCCOCCOCC(=O)N2CCN(c3ccc(C(=O)Nc4n[nH]c5ccc(Cc6cc(F)cc(F)c6)cc45)c(NC4CCOCC4)c3)CC2)C(C)(C)C)cc1` [CPD-058, (2S,4R)-1-((S)-2-(tert-butyl)-14-(4-(4-((5-(3,5-Difluorobenzyl)-1H-indazol-3-yl)carbamoyl)-3-((tetrahydro-2H-pyran-4-yl)amino)phenyl)piperazin-1-yl)-4,14-dioxo-6,9,12-trioxa-3-azatetradecanoyl)-4-hydroxy-N-(4-(4-methylthiazol-5-yl)benzyl)pyrrolidine-2-carboxamide] it is over 1000 nM.
Same read-out and setting: then `Cc1ncsc1-c1ccc(CNC(=O)[C@@H]2C[C@@H](O)CN2C(=O)[C@@H](NC(=O)COCCOCCOCCOCCOCC(=O)N2CCN(c3cccc(-c4cnc5ccc(N6CCC[C@@H]6c6cccc(F)c6)nn45)n3)CC2)C(C)(C)C)cc1` [CPD-003, (2S,4R)-1-((S)-2-(tert-butyl)-20-(4-(6-(6-((R)-2-(3-Fluorophenyl)pyrrolidin-1-yl)imidazo[1,2-b]pyridazin-3-yl)pyridin-2-yl)piperazin-1-yl)-4,20-dioxo-6,9,12,15,18-pentaoxa-3-azaicosanoyl)-4-hydroxy-N-(4-(4-methylthiazol-5-yl)benzyl)pyrrolidine-2-carboxamide], with over 1000 nM; and `O=C1CCC(N2C(=O)c3cccc(NCCC(=O)N4CCN(c5cccc(-c6cnc7ccc(N8CCC[C@@H]8c8cccc(F)c8)nn67)n5)CC4)c3C2=O)C(=O)N1` (stereo partly drawn) [CPD-026, 2-(2,6-Dioxopiperidin-3-yl)-4-((3-(4-(6-(6-((R)-2-(3-fluorophenyl)pyrrolidin-1-yl)imidazo[1,2-b]pyridazin-3-yl)pyridin-2-yl)piperazin-1-yl)-3-oxopropyl)amino)isoindoline-1,3-dione], with 82.3 nM.
On the same count and under the same terms, the figure for `O=C1CCC(N2C(=O)c3cccc(NCCOCCOCCOCCOCCC(=O)N4CCN(c5ccc(C(=O)Nc6n[nH]c7ccc(Cc8cc(F)cc(F)c8)cc67)c(NC6CCOCC6)c5)CC4)c3C2=O)C(=O)N1` (stereo not shown) [CPD-031, N-(5-(3,5-Difluorobenzyl)-1H-indazol-3-yl)-4-(4-(1-((2-(2,6-dioxopiperidin-3-yl)-1,3-dioxoisoindolin-4-yl)amino)-3,6,9,12-tetraoxapentadecan-15-oyl)piperazin-1-yl)-2-((tetrahydro-2H-pyran-4-yl)amino)benzamide] is 68.5 nM.

Still in this test, the particulars now being: Homo sapiens, 72 h; Table 3; KM12 cell viability, CellTiter-Glo, 3 days; read-out: IC50.
On to `O=C1CCC(N2C(=O)c3ccc(NCCCCCCC(=O)N4CCN(c5ccc(C(=O)Nc6n[nH]c7ccc(Cc8cc(F)cc(F)c8)cc67)c(NC6CCOCC6)c5)CC4)cc3C2=O)C(=O)N1` (stereo not shown) [TR-139, N-(5-(3,5-Difluorobenzyl)-1H-indazol-3-yl)-4-(4-(7-((2-(2,6-dioxopiperidin-3-yl)-1,3-dioxoisoindolin-5-yl)amino)heptanoyl)piperazin-1-yl)-2-((tetrahydro-2H-pyran-4-yl)amino)benzamide], for which the IC50 is 27.1 nM.
Same read-out and setting: the figure for `O=C(CN1CCN(c2cccc(-c3cnc4ccc(N5CCC[C@@H]5c5cccc(F)c5)nn34)n2)CC1)NCCOCCOCCOCCOCCOCCNc1cccc2c1C(=O)N(C1CCC(=O)NC1=O)C2=O` (stereo partly drawn) [TR-104, N-(17-((2-(2,6-dioxopiperidin-3-yl)-1,3-dioxoisoindolin-4-yl)amino)-3,6,9,12,15-pentaoxaheptadecyl)-2-(4-(6-(6-((R)-2-(3-fluorophenyl)pyrrolidin-1-yl)imidazo[1,2-b]pyridazin-3-yl)pyridin-2-yl)piperazin-1-yl)acetamide] is 8.1 nM; for `O=C(CN1CCN(c2cccc(-c3cnc4ccc(N5CCC[C@@H]5c5cccc(F)c5)nn34)n2)CC1)NCCOCCNc1cccc2c1C(=O)N(C1CCC(=O)NC1=O)C2=O` (stereo partly drawn) [TR-106, N-(2-(2-((2-(2,6-dioxopiperidin-3-yl)-1,3-dioxoisoindolin-4-yl)amino)ethoxy)ethyl)-2-(4-(6-(6-((R)-2-(3-fluorophenyl)pyrrolidin-1-yl)imidazo[1,2-b]pyridazin-3-yl)pyridin-2-yl)piperazin-1-yl)acetamide] it is 3.8 nM; for `O=C(CN1CCN(c2cccc(-c3cnc4ccc(N5CCC[C@@H]5c5cccc(F)c5)nn34)n2)CC1)NCCCCCCNc1ccc2c(c1)C(=O)N(C1CCC(=O)NC1=O)C2=O` (stereo partly drawn) [TR-128, N-(6-((2-(2,6-dioxopiperidin-3-yl)-1,3-dioxoisoindolin-5-yl)amino)hexyl)-2-(4-(6-(6-((R)-2-(3-fluorophenyl)pyrrolidin-1-yl)imidazo[1,2-b]pyridazin-3-yl)pyridin-2-yl)piperazin-1-yl)acetamide] it is 3.3 nM.
Still for that read-out and setting: then `O=C1CCC(N2C(=O)c3ccc(NCCOCCC(=O)N4CCN(c5cccc(-c6cnc7ccc(N8CCC[C@@H]8c8cccc(F)c8)nn67)n5)CC4)cc3C2=O)C(=O)N1` (stereo partly drawn) [TR-119, 2-(2,6-Dioxopiperidin-3-yl)-5-((2-(3-(4-(6-(6-((R)-2-(3-fluorophenyl)pyrrolidin-1-yl)imidazo[1,2-b]pyridazin-3-yl)pyridin-2-yl)piperazin-1-yl)-3-oxopropoxy)ethyl)amino)isoindoline-1,3-dione], with 1.6 nM.

The same test, now with this note: Homo sapiens, 72 h; Table 4; KM12 cell viability, CellTiter-Glo, 3 days; read-out: IC50.
Regarding `O=C1CCC(N2Cc3cc(N4CC(CN5CCN(c6cccc(-c7cnc8ccc(N9CCC[C@@H]9c9cccc(F)c9)nn78)n6)CC5)C4)ccc3C2=O)C(=O)N1` (stereo partly drawn) [TR-205, 3-(5-(3-((4-(6-(6-((R)-2-(3-Fluorophenyl)pyrrolidin-1-yl)imidazo[1,2-b]pyridazin-3-yl)pyridin-2-yl)piperazin-1-yl)methyl)azetidin-1-yl)-1-oxoisoindolin-2-yl)piperidine-2,6-dione], the 50% inhibitory concentration (IC50) worked out at 122 nM.
On the same count and under the same terms, the figure for `O=C1CCC(N2C(=O)c3ccc(NC(=O)C4CN(c5cccc(-c6cnc7ccc(N8CCC[C@@H]8c8cccc(F)c8)nn67)n5)C4)cc3C2=O)C(=O)N1` (stereo partly drawn) [TR-209, N-(2-(2,6-Dioxopiperidin-3-yl)-1,3-dioxoisoindolin-5-yl)-1-(6-(6-((R)-2-(3-fluorophenyl)pyrrolidin-1-yl)imidazo[1,2-b]pyridazin-3-yl)pyridin-2-yl)azetidine-3-carboxamide] is over 500 nM; for `Cn1c(=O)n(C2CCC(=O)NC2=O)c2cccc(OCCN3CCN(c4cccc(-c5cnc6ccc(N7CCC[C@@H]7c7cccc(F)c7)nn56)n4)CC3)c21` (stereo partly drawn) [TR-244, 3-(4-(2-(4-(6-(6-((R)-2-(3-fluorophenyl)pyrrolidin-1-yl)imidazo[1,2-b]pyridazin-3-yl)pyridin-2-yl)piperazin-1-yl)ethoxy)-3-methyl-2-oxo-2,3-dihydro-1H-benzo[d]imidazol-1-yl)piperidine-2,6-dione] it is 298 nM.
The same measure, in the same setting: then `O=C1CCC(N2C(=O)c3ccc(NC(=O)C4CCN(c5cccc(-c6cnc7ccc(N8CCC[C@@H]8c8cccc(F)c8)nn67)n5)CC4)cc3C2=O)C(=O)N1` (stereo partly drawn) [TR-215, N-(2-(2,6-Dioxopiperidin-3-yl)-1,3-dioxoisoindolin-5-yl)-1-(6-(6-((R)-2-(3-fluorophenyl)pyrrolidin-1-yl)imidazo[1,2-b]pyridazin-3-yl)pyridin-2-yl)piperidine-4-carboxamide], with over 500 nM; and `Cn1c(=O)n(C2CCC(=O)NC2=O)c2ccc(NCCN3CCN(c4cccc(-c5cnc6ccc(N7CCC[C@@H]7c7cccc(F)c7)nn56)n4)CC3)cc21` (stereo partly drawn) [TR-220, 3-(5-((2-(4-(6-(6-((R)-2-(3-Fluorophenyl)pyrrolidin-1-yl)imidazo[1,2-b]pyridazin-3-yl)pyridin-2-yl)piperazin-1-yl)ethyl)amino)-3-methyl-2-oxo-2,3-dihydro-1H-benzo[d]imidazol-1-yl)piperidine-2,6-dione], with 5.5 nM; and `O=C1CCC(N2C[C@H](c3ccc(CN4CCN(c5cccc(-c6cnc7ccc(N8CCC[C@@H]8c8cccc(F)c8)nn67)n5)CC4)cc3)OC2=O)C(=O)N1` (stereo partly drawn) [TR-229, 3-((S)-5-(4-((4-(6-(6-((R)-2-(3-Fluorophenyl)pyrrolidin-1-yl)imidazo[1,2-b]pyridazin-3-yl)pyridin-2-yl)piperazin-1-yl)methyl)phenyl)-2-oxooxazolidin-3-yl)piperidine-2,6-dione], with 50.8 nM.

The same test, now with this note: Homo sapiens, KM12, 72 h.
The molecule `Cn1c(=O)n(C2CCC(=O)NC2=O)c2cccc(CCCCN3CCN(c4cccc(-c5cnc6ccc(N7CCC[C@@H]7c7cccc(F)c7)nn56)n4)CC3)c21` (stereo partly drawn) [TR-241, 3-(4-(4-(4-(6-(6-((R)-2-(3-fluorophenyl)pyrrolidin-1-yl)imidazo[1,2-b]pyridazin-3-yl)pyridin-2-yl)piperazin-1-yl)butyl)-3-methyl-2-oxo-2,3-dihydro-1H-benzo[d]imidazol-1-yl)piperidine-2,6-dione] returned an IC50 of 9 nM.
Still for that read-out and setting: the figure for `Cn1c(=O)n(C2CCC(=O)NC2=O)c2cccc(C#CCN3CCN(c4cccc(-c5cnc6ccc(N7CCC[C@@H]7c7cccc(F)c7)nn56)n4)CC3)c21` (stereo partly drawn) [TR-238, 3-(4-(3-(4-(6-(6-((R)-2-(3-fluorophenyl)pyrrolidin-1-yl)imidazo[1,2-b]pyridazin-3-yl)pyridin-2-yl)piperazin-1-yl)prop-1-yn-1-yl)-3-methyl-2-oxo-2,3-dihydro-1H-benzo[d]imidazol-1-yl)piperidine-2,6-dione] is 16 nM.

These data come from US12065442B2, “Tropomyosin receptor kinase (TRK) degradation compounds and methods of use” (Cullgen (Shanghai), Inc., priority 2018, dated 2024).
